Data from patent US20040109905A1, “Method and composition of anthocyanin-rich berry extracts that prevents or inhibits angiogenesis and helicobacter pylori and acts as a powerful antioxidant that provides various health benefits” (priority 2002, published 2004).

Test system: H2O2-induced expression of VEGF
Assay: H2O2-induced VEGF expression in HaCaT keratinocytes (ELISA)
Type: cell-based, human
Conditions: for VEGF: HaCaT cells, FA 200 nM, catechin 100 nM, rutin 1 μM, α-tocopherol 10 μM for 12 hours, then H2O2 150 μM for 12 hours, Mean±SD of three experiments; for effect on H2O2 (oxidant)-inducible VEGF expression, in words: human keratinocytes
Experimental: The cells used for the test were immortalized HaCaT human keratinocytes grown in Dulbecco's modified Eagle's medium (provided by Life Technologies of Gaithersburg, Md.) and supplemented with 10% fetal bovine serum, 100 U/mL penicillin and 100 μg/mL streptomycin.
Solutions incorporating berry extracts or GSPE were prepared fresh in dimethyl sulfoxide at concentrations such that the final concentration of the solvent in cell suspension never exceeded 0.1% prior to cell treatment, the DMSO solutions were passed through a […] filter for sterilization. Respective controls were treated with equal volumes of dimethyl sulfoxide. The test cells were pretreated with the berry solutions.
Test cells were seeded onto multiple well culture-plates. After 24 hours of growth at 80% confluency, the cells were synchronized by culturing them in a serum-deprived medium for 12 hours. Following the synchronization, the cells were treated with H2O2 or TNFα. The berry treatment protocols are described in the legends for Tables 2 through 4 below. A serum-free medium was selected to avoid any possible interaction between the serum components and H2O2. The VEGF level in the medium was determined using a commercially available ELISA kit, marketed by R and D systems of Minneapolis, Minn.
(§1) HaCaT cells were seeded at density 0.45×10^6/well/3 ml. After 24 hr, growth media was chanced to serum free RPMI and berry samples (50 μg/ml) or GSPE (25 μg/ml) were added. After 12 hours, cells were challenged with H2O2 (150 μM). After 12 hours of activation with H2O2, media was collected for ELISA. *p<0.05, higher in response to H2O2 treatment; *lower compared to H2O2 treated cells. Mean±SD of three experiments.
as §1, with “and either pure flavonoids ([…], FA 200 nM; catechin, Cat 100 nM, ruti, rut 1 μM) at concentrations observed in” for “and”, “samples” for “samples (50 μg/ml)”, “a α-tocopherol (10 μM as reference antioxidant)” for “GSPE (25 μg/ml)”

| Molecule | VEGF | effect on H2O2 (oxidant)-inducible VEGF expression, in words |
| --- | --- | --- |
| COc1cc(/C=C/C(=O)O)ccc1O [Ferrulic Acid] | 319.19 ± 21.05 pg/mL | suppress oxidant-inducible VEGF expression to some degree |
| Catechin | 285.89 ± 51.13 pg/mL | suppress oxidant-inducible VEGF expression to some degree |
| C[C@@H]1O[C@@H](OC[C@H]2O[C@@H](Oc3c(-c4ccc(O)c(O)c4)oc4cc(O)cc(O)c4c3=O)[C@H](O)[C@@H](O)[C@@H]2O)[C@H](O)[C@H](O)[C@H]1O [Rutin] | 209.06 ± 59.28 pg/mL |  |
| Cc1c(C)c2c(c(C)c1O)CC[C@@](C)(CCC[C@H](C)CCC[C@H](C)CCCC(C)C)O2 [α-tocopherol] | 397.10 ± 64.91 pg/mL | did not influence inducible VEGF expression |
